# Results reported in ChEMBL document CHEMBL5380833 (J Med Chem, 2023).
# Active and inactive are the calls of the source. The rule behind the calls is not given here.
# What was measured:
# Interleukin-2 = Interleukin-2 (Homo sapiens, UniProt P60568); assay: Inhibition of IL-2 in human Jurkat cells pretreated with compound for 4 hrs followed by anti-CD3/CD28 stimulation by ELISA analysis; assay type: cell-based
# Jurkat [1] = assay: Inhibition of TCR signalling in human Jurkat cells assessed as reduction in ERK(T202/Y204) phosphorylation preincubated with cells for 12 hrs followed by anti-CD-2 antibody stimulation for 5 mins by Western blot analysis; assay type: cell-based; settings: dose 0.01-3 µM
# [2] = Half life in Balb/c mouse at 5 mg/kg, iv measured upto 24 hrs by LC-MS/MS analysis; assay type: ADME, organism-based; settings: in vivo
# [3] = Bioavailability in Balb/c mouse at 10 mg/kg, ip measured upto 24 hrs by LC-MS/MS analysis; assay type: ADME, organism-based; settings: in vivo
# [4] = molecular target: T1, Protein cereblon/Tyrosine-protein kinase ITK/TSK (Homo sapiens, UniProt Q08881+Q96SW2); assay: PROTAC activity at CRBN/ITK in human MOLT-4 cells assessed as induction of ITK degradation; assay type: cell-based
# Target sequence in this assay (Q08881 whole entry): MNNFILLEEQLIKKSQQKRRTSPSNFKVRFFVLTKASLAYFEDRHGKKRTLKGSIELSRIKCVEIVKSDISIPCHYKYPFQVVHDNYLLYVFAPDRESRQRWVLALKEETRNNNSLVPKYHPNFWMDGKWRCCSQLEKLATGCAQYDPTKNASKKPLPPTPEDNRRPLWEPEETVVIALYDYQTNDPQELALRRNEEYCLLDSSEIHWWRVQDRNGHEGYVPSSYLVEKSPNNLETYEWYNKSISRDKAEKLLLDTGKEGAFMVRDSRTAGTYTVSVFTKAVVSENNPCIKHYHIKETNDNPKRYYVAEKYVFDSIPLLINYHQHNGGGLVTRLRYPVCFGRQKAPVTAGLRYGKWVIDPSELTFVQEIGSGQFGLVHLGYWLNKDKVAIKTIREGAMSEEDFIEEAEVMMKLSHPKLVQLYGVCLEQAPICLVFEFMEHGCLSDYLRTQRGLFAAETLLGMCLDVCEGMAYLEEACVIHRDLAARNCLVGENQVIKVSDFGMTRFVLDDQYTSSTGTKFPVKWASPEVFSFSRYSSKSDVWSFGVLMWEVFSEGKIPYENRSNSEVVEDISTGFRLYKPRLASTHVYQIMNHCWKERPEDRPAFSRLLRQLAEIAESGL
# Target sequence in this assay (Q96SW2 whole entry): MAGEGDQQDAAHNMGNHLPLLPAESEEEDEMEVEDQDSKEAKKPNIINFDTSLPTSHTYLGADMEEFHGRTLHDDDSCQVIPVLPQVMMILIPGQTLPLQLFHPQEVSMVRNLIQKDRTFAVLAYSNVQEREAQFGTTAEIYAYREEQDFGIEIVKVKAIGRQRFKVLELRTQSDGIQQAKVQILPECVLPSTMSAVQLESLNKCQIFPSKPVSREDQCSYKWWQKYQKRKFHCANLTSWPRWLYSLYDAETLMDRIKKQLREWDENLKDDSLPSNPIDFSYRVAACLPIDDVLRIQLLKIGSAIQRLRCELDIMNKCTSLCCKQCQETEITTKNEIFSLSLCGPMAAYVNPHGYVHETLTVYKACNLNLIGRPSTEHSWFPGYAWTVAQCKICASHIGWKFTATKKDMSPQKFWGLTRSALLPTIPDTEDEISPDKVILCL
# [5] = AUC (0 to infinity) in Balb/c mouse at 10 mg/kg, ip measured upto 24 hrs by LC-MS/MS analysis; assay type: ADME, organism-based; parameters: dose 10 mg/kg, time < 24 hrs, route ip; settings: in vivo
# Jurkat [6] = assay: Inhibition of TCR signalling in human Jurkat cells assessed as reduction in PLCgamma1 phosphorylation preincubated with cells for 12 hrs followed by anti-CD-2 antibody stimulation for 5 mins by Western blot analysis; assay type: cell-based; settings: dose 0.01-3 µM
# [7] = molecular target: T1, Protein cereblon/Tyrosine-protein kinase ITK/TSK; assay: PROTAC activity at CRBN/ITK in human Jurkat cells assessed as downregulation of ITK protein at 100 nM preincubated with cells for 12 hrs followed by compound washout measured after 24 hrs; assay type: cell-based
# Target sequence in this assay (Q08881 whole entry, looked up): as the sequence (Q08881 whole entry) above
# Target sequence in this assay (Q96SW2 whole entry, looked up): as the sequence (Q96SW2 whole entry) above
# [8] = molecular target: T1, Protein cereblon/Tyrosine-protein kinase ITK/TSK; assay: PROTAC activity at CRBN/ITK in human Jurkat cells assessed as induction of ITK degradation at 100 nM pretreated with MLN4924 for 1 hr followed by compound addition and measured after 2 hrs by Western blot analysis; assay type: cell-based
# Target sequence in this assay (Q08881 whole entry, looked up): as the sequence (Q08881 whole entry) above
# Target sequence in this assay (Q96SW2 whole entry, looked up): as the sequence (Q96SW2 whole entry) above
# [9] = Toxicity in Balb/c mouse assessed as drug tolerance at 10 mg/kg, ip measured upto 24 hrs by LC-MS/MS analysis; assay type: organism-based; settings: in vivo
# [10] = molecular target: Tyrosine-protein kinase Yes (Homo sapiens) (UniProt P07947); assay: Induction of degradation of YES in human Ramos cells at 0.01 to 10 uM by immunoblotting analysis; assay type: cell-based; settings: dose 0.01-10 µM
# [11] = Toxicity in Balb/c mouse assessed as side effects at 10 mg/kg, ip measured upto 24 hrs by LC-MS/MS analysis; assay type: organism-based; settings: in vivo
# [12] = Toxicity in Balb/c mouse assessed as drug tolerance at 5 mg/kg, iv measured upto 24 hrs by LC-MS/MS analysis; assay type: organism-based; settings: in vivo
# [13] = Half life in Balb/c mouse at 10 mg/kg, ip measured upto 24 hrs by LC-MS/MS analysis; assay type: ADME, organism-based; settings: in vivo
# [14] = MRT last in Balb/c mouse at 5 mg/kg, iv measured upto 24 hrs by LC-MS/MS analysis; assay type: ADME, organism-based; settings: in vivo, iv, 5 mg/kg, 24 h
# [15] = Toxicity in Balb/c mouse assessed as side effects at 5 mg/kg, iv measured upto 24 hrs by LC-MS/MS analysis; assay type: organism-based; settings: in vivo
# [16] = molecular target: T2, Cytoplasmic tyrosine-protein kinase BMX (Homo sapiens) (UniProt P51813); assay: Induction of degradation of BMX in human Jurkat cells at 0.01 to 10 uM by immunoblotting analysis; assay type: cell-based; settings: dose 0.01-10 µM
# T2 sequence (whole entry): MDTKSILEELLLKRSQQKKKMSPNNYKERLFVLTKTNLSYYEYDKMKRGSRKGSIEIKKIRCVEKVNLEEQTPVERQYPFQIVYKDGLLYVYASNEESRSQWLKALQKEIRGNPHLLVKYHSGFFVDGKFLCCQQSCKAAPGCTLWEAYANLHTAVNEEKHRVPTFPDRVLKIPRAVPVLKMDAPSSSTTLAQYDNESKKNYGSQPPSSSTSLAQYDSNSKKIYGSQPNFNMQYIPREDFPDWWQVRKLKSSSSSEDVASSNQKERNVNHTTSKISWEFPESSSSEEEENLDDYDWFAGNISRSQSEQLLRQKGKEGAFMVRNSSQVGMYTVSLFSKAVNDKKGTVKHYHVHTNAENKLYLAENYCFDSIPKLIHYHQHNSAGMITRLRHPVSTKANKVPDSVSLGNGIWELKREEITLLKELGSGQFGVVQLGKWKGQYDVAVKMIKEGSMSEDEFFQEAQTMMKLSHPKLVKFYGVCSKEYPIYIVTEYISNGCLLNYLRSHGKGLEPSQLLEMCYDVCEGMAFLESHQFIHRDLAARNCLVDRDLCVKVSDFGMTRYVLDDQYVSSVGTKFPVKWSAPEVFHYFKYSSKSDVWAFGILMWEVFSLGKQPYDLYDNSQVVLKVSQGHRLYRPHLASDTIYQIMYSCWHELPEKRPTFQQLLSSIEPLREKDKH
# [17] = molecular target: T1, Protein cereblon/Tyrosine-protein kinase ITK/TSK; assay: PROTAC activity at CRBN/ITK in human Jurkat cells assessed as […] ITK degradation at 300 nM incubated for 8 hrs by tandem mass tag quantitative proteomic analysis; assay type: cell-based
# Target sequence in this assay (Q08881 whole entry, looked up): as the sequence (Q08881 whole entry) above
# Target sequence in this assay (Q96SW2 whole entry, looked up): as the sequence (Q96SW2 whole entry) above
# [18] = Cmax in Balb/c mouse at 5 mg/kg, iv measured upto 24 hrs by LC-MS/MS analysis; assay type: ADME, organism-based; parameters: time < 24 hrs, dose 5 mg/kg, route iv; settings: in vivo
# [19] = Volume of distribution at steady state in Balb/c mouse at 5 mg/kg, iv measured upto 24 hrs by LC-MS/MS analysis; assay type: ADME, organism-based; settings: in vivo, read-out: Vdss
# [20] = molecular target: T1, Protein cereblon/Tyrosine-protein kinase ITK/TSK; assay: PROTAC activity at CRBN/ITK in human Jurkat cells assessed as reduction in ITK protein at 100 nM measured within 4 hrs; assay type: cell-based
# Target sequence in this assay (Q08881 whole entry, looked up): as the sequence (Q08881 whole entry) above
# Target sequence in this assay (Q96SW2 whole entry, looked up): as the sequence (Q96SW2 whole entry) above
# [21] = molecular target: T1, Protein cereblon/Tyrosine-protein kinase ITK/TSK; assay: PROTAC activity at CRBN/ITK in human Jurkat cells assessed as induction of ITK degradation by Western blot analysis; assay type: cell-based; settings: read-out: EC50
# Target sequence in this assay (Q08881 whole entry): as the sequence (Q08881 whole entry) above
# Target sequence in this assay (Q96SW2 whole entry): as the sequence (Q96SW2 whole entry) above
# [22] = molecular target: T1, Protein cereblon/Tyrosine-protein kinase ITK/TSK; assay: PROTAC activity at CRBN/ITK in human Jurkat cells assessed as induction of ITK degradation at 100 nM pretreated with 5-amino-2-(2,6-dioxopiperidin-3-yl)isoindoline-1,3-dione for 1 hr followed by compound addition and measured after 2 hrs by Western blot analysis; assay type: cell-based
# Target sequence in this assay (Q08881 whole entry, looked up): as the sequence (Q08881 whole entry) above
# Target sequence in this assay (Q96SW2 whole entry, looked up): as the sequence (Q96SW2 whole entry) above
# [23] = molecular target: Tyrosine-protein kinase BTK (Homo sapiens) (UniProt Q06187); assay: Induction of degradation of BTK in human Ramos cells at 0.01 to 10 uM by immunoblotting analysis; assay type: cell-based; settings: dose 0.01-10 µM
# [24] = MRT last in Balb/c mouse at 10 mg/kg, ip measured upto 24 hrs by LC-MS/MS analysis; assay type: ADME, organism-based; settings: in vivo
# [25] = molecular target: T1, Protein cereblon/Tyrosine-protein kinase ITK/TSK; assay: PROTAC activity at CRBN/ITK in human Jurkat cells assessed as induction of ITK degradation at 100 nM pretreated with proteosome inhibitor carfilzomib for 1 hr followed by compound addition and measured after 2 hrs by Western blot analysis; assay type: cell-based
# Target sequence in this assay (Q08881 whole entry, looked up): as the sequence (Q08881 whole entry) above
# Target sequence in this assay (Q96SW2 whole entry, looked up): as the sequence (Q96SW2 whole entry) above
# [26] = AUC (0 to t) in Balb/c mouse at 10 mg/kg, ip measured upto 24 hrs by LC-MS/MS analysis; assay type: ADME, organism-based; parameters: time < 24 hrs, dose 10 mg/kg, route ip; settings: in vivo
# [27] = Volume of distribution at steady state in Balb/c mouse at 10 mg/kg, ip measured upto 24 hrs by LC-MS/MS analysis; assay type: ADME, organism-based; settings: in vivo
# Jurkat [28] = assay: Induction of degradation of RSK in human Jurkat cells at 0.01 to 10 uM by immunoblotting analysis; assay type: cell-based; settings: dose 0.01-10 µM
# Sequence of Tyrosine-protein kinase BTK (Homo sapiens) (Q06187 whole entry): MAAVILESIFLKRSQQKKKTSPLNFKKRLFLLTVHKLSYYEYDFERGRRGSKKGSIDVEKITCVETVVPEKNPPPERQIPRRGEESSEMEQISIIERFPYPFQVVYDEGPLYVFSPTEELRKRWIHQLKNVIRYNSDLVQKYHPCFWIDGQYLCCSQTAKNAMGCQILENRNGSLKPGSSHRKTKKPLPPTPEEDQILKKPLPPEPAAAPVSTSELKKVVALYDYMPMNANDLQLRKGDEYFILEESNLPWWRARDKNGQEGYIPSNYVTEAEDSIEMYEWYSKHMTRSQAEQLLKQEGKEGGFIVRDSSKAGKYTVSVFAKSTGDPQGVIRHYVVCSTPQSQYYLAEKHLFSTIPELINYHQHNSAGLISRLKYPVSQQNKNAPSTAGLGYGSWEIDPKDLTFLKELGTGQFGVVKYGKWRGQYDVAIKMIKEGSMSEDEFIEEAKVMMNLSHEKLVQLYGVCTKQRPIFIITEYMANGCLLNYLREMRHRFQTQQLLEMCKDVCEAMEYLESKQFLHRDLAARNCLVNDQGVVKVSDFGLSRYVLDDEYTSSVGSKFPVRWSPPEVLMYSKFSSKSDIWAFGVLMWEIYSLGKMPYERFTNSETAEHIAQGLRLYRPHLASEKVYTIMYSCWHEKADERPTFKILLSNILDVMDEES
# Sequence of Interleukin-2 (P60568 whole entry): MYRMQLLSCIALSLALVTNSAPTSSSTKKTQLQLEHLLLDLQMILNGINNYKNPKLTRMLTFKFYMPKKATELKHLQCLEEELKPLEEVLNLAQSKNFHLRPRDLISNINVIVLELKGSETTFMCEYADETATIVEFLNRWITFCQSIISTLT
# Sequence of Tyrosine-protein kinase Yes (Homo sapiens) (P07947 2-543 limits assumed): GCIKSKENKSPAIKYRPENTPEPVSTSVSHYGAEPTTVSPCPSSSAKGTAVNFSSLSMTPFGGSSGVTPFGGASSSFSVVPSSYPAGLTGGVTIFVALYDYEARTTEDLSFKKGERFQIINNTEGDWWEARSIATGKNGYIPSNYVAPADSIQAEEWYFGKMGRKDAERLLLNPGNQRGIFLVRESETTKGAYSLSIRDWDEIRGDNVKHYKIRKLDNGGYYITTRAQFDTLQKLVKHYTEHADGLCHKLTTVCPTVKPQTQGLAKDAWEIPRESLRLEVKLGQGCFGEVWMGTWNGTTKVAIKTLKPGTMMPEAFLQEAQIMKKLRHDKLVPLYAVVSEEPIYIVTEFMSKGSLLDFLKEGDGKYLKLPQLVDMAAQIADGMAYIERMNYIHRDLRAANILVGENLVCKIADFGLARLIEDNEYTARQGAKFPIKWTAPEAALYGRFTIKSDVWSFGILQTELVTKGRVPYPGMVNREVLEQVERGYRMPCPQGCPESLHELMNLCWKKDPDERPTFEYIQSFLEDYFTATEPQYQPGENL
compound,measurement,setting,value
CN(CCCCCC(=O)Nc1ccc2c(c1)C(=O)N(C1CCC(=O)NC1=O)C2=O)CC[C@@H](c1ccccc1)n1cc(NC(=O)c2n[nH]c3c2CCC(C)(C)C3)cn1.O=C(O)C(F)(F)F (some centres undefined),EC50,Interleukin-2,25.3 nM
same,inhibition,Jurkat [1],Dose-Dependent Effect
same,half-life,[2],113 min
same,bioavailability,[3],73.5%
same,DC50,[4],6 nM
same,AUC(0-inf),[5],1590 ng·h/mL
same,inhibition,Jurkat [6],Dose-Dependent Effect
same,Activity,[7],Active
same,Activity,[8],inactive
same,Activity,[9],Non-Toxic
same,Activity,[10],inactive
same,Activity,[11],Non-Toxic
same,Activity,[12],Non-Toxic
same,half-life,[13],117 min
same,MRTlast,[14],23.4 min
same,Activity,[15],Non-Toxic
same,Activity,[16],inactive
same,Activity,[17],Active
same,Cmax,[18],3320 ng/mL
same,Vd,[19],12.9 L/kg
same,Activity,[20],Active
same,EC50,[21],7 nM
same,Activity,[22],inactive
same,Activity,[23],inactive
same,MRT last at 24 h,[24],1.06 h
same,Activity,[25],inactive
same,AUC(0-t) at 24 h,[26],1560 ng·h/mL
same,Vdss,[27],18.4 L/kg
same,Activity,Jurkat [28],inactive
